Measurements: US7767659B2, “Synthesis of naturally occurring ecteinascidins and related compounds” (Pharma Mar, S.A., priority 2002, dated 2010)
Like-named read-outs stand apart in the source and are kept apart here.

Assays:
LNCaP = assay: Inhibition of cells growth by colorimetric assay (SRB); details: Homo sapiens, LNCaP, 48 h
Experimental: (§1) This form of the assay employs 96 well cell culture microplates of 9 mm diameter (Faircloth, 1988; Mosmann, 1983). Most of the cell lines are obtained from American Type Culture Collection (ATCC) derived from different human cancer types.
(§2) Cells are maintained in RPMI 1640 10% FBS, supplemented with 0.1 g/l penicillin and 0.1 g/l streptomycin sulfate and then incubated at 37° C., 5% CO2 and 98% humidity. For the experiments, cells were harvested from subconfluent cultures using trypsin and resuspended in fresh medium before plating.
(§3) Cells are seeded in 96 well microtiter plates, at 5×10^3 cells per well in aliquots of 195 μl medium, and they are allowed to attach to the plate surface by growing in drug free medium for 18 hours. Afterward, samples are added in aliquots of 5 μl in a ranging from 10 to 10^−8 μg/ml, dissolved in DMSO/EtOH/PBS (0.5:0.5:99). After 48 hours exposure, the antitumor effect are measured by the SRB methodology: cells are fixed by adding 50 μl of cold 50% (wt/vol) trichloroacetic acid (TCA) and incubating for 60 minutes at 4° C. Plates are washed with deionized water and dried. One hundred μl of SRB solution (0.4% wt/vol in 1% acetic acid) is added to each microtiter well and incubated for 10 minutes at room temperature. Unbound SRB is removed by washing with 1% acetic acid. Plates are air dried and bound stain is solubilzed with Tris buffer. Optical densities are read on a automated spectrophotometric plate reader at a single wavelength of 490 nm.
(§4) The values for mean +/− SD of data from triplicate wells are calculated. Some parameters for cellular responses can be calculated: GI=growth inhibition, TGI=total growth inhibition (cytostatic effect) and LC=cell killing (cytotoxic effect).

SK-BR-3 = assay: as above; details: Homo sapiens, SK-BR-3, 48 h
Experimental: as §1, §2, §3, §4

IGROV-1 = assay: as above; details: Homo sapiens, IGROV-1, 48 h
Experimental: as §1, §2, §3, §4

HeLa-APL = assay: as above; details: Homo sapiens, 48 h
Experimental: as §1, §2, §3, §4

SK-MEL-28 = assay: as above; details: Homo sapiens, SK-MEL-28, 48 h
Experimental: as §1, §2, §3, §4

DU-145 = assay: as above; details: Homo sapiens, DU-145, 48 h
Experimental: as §1, §2, §3, §4

K-562 = assay: as above; details: Homo sapiens, K562, 48 h
Experimental: as §1, §2, §3, §4

LoVo-Dox = assay: as above; details: Homo sapiens, 48 h
Experimental: as §1, §2, §3, §4

IGROV-ET = assay: as above; details: Homo sapiens, 48 h
Experimental: as §1, §2, §3, §4

HeLa = assay: as above; details: Homo sapiens, HeLa, 48 h
Experimental: as §1, §2, §3, §4

PANC-1 = assay: as above; details: Homo sapiens, PANC-1, 48 h
Experimental: as §1, §2, §3, §4

HT-29 = assay: cells; details: Homo sapiens, HT-29, 48 h
Procedure, shortened: (§5)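 Colorimetric SRB read (490 nm) on triplicate wells after 48 h at 37 °C, 5% CO2. Dose range 10 to 10^−8 μg/ml; 5×10^3 cells/well pre-attached 18 h.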

LoVo = assay: cells; details: Homo sapiens, LoVo, 48 h
Procedure, shortened: as §5

A-549 = assay: cells; details: Homo sapiens, A549, 48 h
Procedure, shortened: as §5

Compound `COc1cc2c(cc1O)CCN[C@]21CS[C@@H]2c3c(OC(C)=O)c(C)c4c(c3[C@H](COC1=O)N1C2C2c3c(cc(C)c(OC)c3O)C[C@@H]([C@@H]1C#N)N2C)OCO4` (stereo partly shown) [Et-770] has a GI50 (LNCaP; read-out: LNCAP GI50) of 1.48 nM, a CC50 (LNCaP; read-out: LNCAP LC50) of 6.34 nM and an IC (TGI) (LNCaP; read-out: LNCAP TGI) of 3.06 nM. The GI50 (SK-BR-3; read-out: SK-BR3 GI50) was 0.986 nM, the CC50 (SK-BR-3; read-out: SK-BR3 LC50) was 13000 nM and the IC (TGI) (SK-BR-3; read-out: SK-BR3 TGI) was 94.8 nM. For the same compound, the GI50 (IGROV-1; read-out: IGROV GI50) was 3.32 nM, the CC50 (IGROV-1; read-out: IGROV LC50) was 13000 nM and the IC (TGI) (IGROV-1; read-out: IGROV TGI) was 8.51 nM. The GI50 (HeLa-APL; read-out: HELA-APL GI50) was 2.96 nM, the CC50 (HeLa-APL; read-out: HELA-APL LC50) was 12.2 nM and the IC (TGI) (HeLa-APL; read-out: HELA-APL TGI) was 6.01 nM. The GI50 (SK-MEL-28; read-out: MEL-28 GI50) was 2.63 nM, the CC50 (SK-MEL-28; read-out: MEL-28 LC50) was 10.8 nM and the IC (TGI) (SK-MEL-28; read-out: MEL-28 TGI) was 5.34 nM. For the same compound, the GI50 (DU-145; read-out: DU145 GI50) was 4.16 nM, the CC50 (DU-145; read-out: DU145 LC50) was 13000 nM and the IC (TGI) (DU-145; read-out: DU145 TGI) was 32 nM. The GI50 (K-562; read-out: K562 GI50) was 1.65 nM, the CC50 (K-562; read-out: K562 LC50) was 6630 nM and the IC (TGI) (K-562; read-out: K562 TGI) was 8.02 nM. The GI50 (LoVo-Dox; read-out: LOVO-DOX GI50) was 74.1 nM, the IC (TGI) (LoVo-Dox; read-out: LOVO-DOX TGI) was 13000 nM and the GI50 (IGROV-ET; read-out: IGROV-ET GI50) was 12.1 nM. The CC50 (IGROV-ET; read-out: IGROV-ET LC50) was 13000 nM, the IC (TGI) (IGROV-ET; read-out: IGROV-ET TGI) was 4500 nM and the GI50 (HeLa; read-out: HELA GI50) was 5.09 nM. It also gave an IC (TGI) (HeLa; read-out: HELA TGI) of 12.6 nM, a GI50 (PANC-1; read-out: PANC-1 GI50) of 5.53 nM and a CC50 (PANC-1; read-out: PANC-1 LC50) of 13000 nM. The IC (TGI) (PANC-1; read-out: PANC-1 TGI) was 115 nM, the GI50 (HT-29; read-out: HT29 GI50) was 5.86 nM and the CC50 (HT-29; read-out: HT29 LC50) was 13000 nM. For the same compound, the IC (TGI) (HT-29; read-out: HT29 TGI) was 13 nM, the GI50 (LoVo; read-out: LOVO GI50) was 3.09 nM and the CC50 (LoVo; read-out: LOVO LC50) was 11.4 nM. It also gave an IC (TGI) (LoVo; read-out: LOVO TGI) of 5.93 nM, a GI50 (A-549; read-out: A549 GI50) of 3.24 nM and a CC50 (A-549; read-out: A549 LC50) of 5200 nM. It also gave an IC (TGI) (A-549; read-out: A549 TGI) of 6.98 nM.
`C=CCOc1c(C)c2c(c3c1CC1[C@H]4c5c(cc(C)c(OC)c5O)C[C@@H]([C@H](C#N)N1[C@H]3CN)N4C)OCO2` (stereo partly shown) [compound 1] was tested, and the GI50 (LNCaP; read-out: GI50 LNCAP) was 434 nM, the CC50 (LNCaP; read-out: LC50 LNCAP) was 1290 nM and the IC (TGI) (LNCaP; read-out: TGI LNCAP) was 747 nM. It also gave a GI50 (SK-BR-3; read-out: GI50 SK-BR3) of 1010 nM, a CC50 (SK-BR-3; read-out: LC50 SK-BR3) of 19200 nM and an IC (TGI) (SK-BR-3; read-out: TGI SK-BR3) of 3960 nM. It also gave a GI50 (IGROV-1; read-out: GI50 IGROV) of 901 nM, a CC50 (IGROV-1; read-out: LC50 IGROV) of 19200 nM and an IC (TGI) (IGROV-1; read-out: TGI IGROV) of 2590 nM. The GI50 (HeLa-APL; read-out: GI50 HELA-APL) was 717 nM, the CC50 (HeLa-APL; read-out: LC50 HELA-APL) was 7510 nM and the IC (TGI) (HeLa-APL; read-out: TGI HELA-APL) was 1630 nM. It also gave a GI50 (SK-MEL-28; read-out: GI50 MEL-28) of 561 nM, a CC50 (SK-MEL-28; read-out: LC50 MEL-28) of 6070 nM and an IC (TGI) (SK-MEL-28; read-out: TGI MEL-28) of 1150 nM. For the same compound, the GI50 (DU-145; read-out: GI50 DU145) was 567 nM, the CC50 (DU-145; read-out: LC50 DU145) was 1920 nM and the IC (TGI) (DU-145; read-out: TGI DU145) was 1070 nM. The GI50 (K-562; read-out: GI50 K562) was 361 nM, the CC50 (K-562; read-out: LC50 K562) was 1770 nM and the IC (TGI) (K-562; read-out: TGI K562) was 799 nM. The GI50 (LoVo-Dox; read-out: GI50 LOVO-DOX) was 6170 nM, the CC50 (LoVo-Dox; read-out: LC50 LOVO-DOX) was 19200 nM and the IC (TGI) (LoVo-Dox; read-out: TGI LOVO-DOX) was 19200 nM. The GI50 (IGROV-ET; read-out: GI50 IGROV-ET) was 970 nM, the CC50 (IGROV-ET; read-out: LC50 IGROV-ET) was 19200 nM and the IC (TGI) (IGROV-ET; read-out: TGI IGROV-ET) was 19200 nM. It also gave a GI50 (HeLa; read-out: GI50 HELA) of 1080 nM, a CC50 (HeLa; read-out: LC50 HELA) of 18100 nM and an IC (TGI) (HeLa; read-out: TGI HELA) of 2840 nM. The GI50 (PANC-1; read-out: GI50 PANC-1) was 887 nM, the CC50 (PANC-1; read-out: LC50 PANC-1) was 19200 nM and the IC (TGI) (PANC-1; read-out: TGI PANC-1) was 4360 nM. It also gave a GI50 (HT-29; read-out: GI50 HT29) of 1110 nM, a CC50 (HT-29; read-out: LC50 HT29) of 19200 nM and an IC (TGI) (HT-29; read-out: TGI HT29) of 19200 nM. For the same compound, the GI50 (LoVo; read-out: GI50 LOVO) was 932 nM, the CC50 (LoVo; read-out: LC50 LOVO) was 19200 nM and the IC (TGI) (LoVo; read-out: TGI LOVO) was 4000 nM. The GI50 (A-549; read-out: GI50 A549) was 1530 nM, the CC50 (A-549; read-out: LC50 A549) was 19200 nM and the IC (TGI) (A-549; read-out: TGI A549) was 6070 nM.
